Broadly, the MIC is the lowest concentration that inhibits growth of the organism. A low value points to greater potency.

This note sets out measurements from DBAASP.

≈ marks a conversion by molar mass, not a printed value. Where “and” joins values, the source holds several entries; their conditions need not be identical. Identical values can stand only once. Some results are limits rather than exact numbers.

What all share (test): ≥ marks a high value that may be exact or a test limit, other limits are often not marked, values filed in µg/mL are converted to µM
Assay [1] has as its system Candida albicans ATCC 32354.
Assay [2] concerns Staphylococcus aureus.
In assay [3] the test system is Streptococcus pyogenes ATCC 10389.
Assay [4] has as its system Pseudomonas aeruginosa.
Assay [5] has as its system Pseudomonas aeruginosa ATCC 90271.
Assay [6] has as its system Aspergillus niger ATCC 20611.
The subject of assay [7] is Salmonella enterica subsp. enterica serovar Typhimurium ATCC 13311.
Assay [8] deals with Shigella sonnei ATCC 25931.
Assay [9] relates to Saccharomyces cerevisiae ATCC 24860.
Assay [10] relates to Campylobacter jejuni.
Assay [11] relates to Campylobacter jejuni ATCC 43051.
The test system of assay [12] is Staphylococcus aureus ATCC 29213.
Assay [13] concerns Shigella flexneri ATCC 25875.
Assay [14] concerns Shigella sonnei.
The test system of assay [15] is Helicobacter pylori ATCC 43526.
Assay [16] relates to Escherichia coli.
Assay [17] has as its system Aspergillus fumigatus ATCC 16424.
The test system of assay [18] is Trichoderma viride ATCC 36316.
Assay [19] deals with Escherichia coli ATCC 15224.
Assay [20] has as its system Shigella flexneri.
The subject of assay [21] is Salmonella typhimurium.
Assay [22] has as its system Streptococcus pyogenes.
Assay [23] deals with Aspergillus flavus ATCC 46283.
For assay [24], the system named is Vibrio metschnikovii NCTC 8483.
For assay [25], the system named is Bacillus megaterium ATCC 17749.
The test system of assay [26] is Micrococcus luteus ATCC 4698.
In assay [27] the test system is Escherichia coli 363 ATCC 11775.
Assay [28] has as its system Candida sp.
Assay [29] concerns Salmonella enterica subsp. enterica serovar Newport.
Assay [30] concerns Staphylococcus aureus ATCC 25293.
Assay [31] deals with Vibrio alginolyticus ATCC 17749.
The test system of assay [32] is Staphylococcus epidermidis ATCC 12228.
Assay [33] deals with Fusarium oxysporum.
Assay [34] deals with Micrococcus luteus ATCC 10240.
Assay [35] has as its system Corynebacterium diphtheriae ATCC 8024.
In assay [36] the test system is Corynebacterium diphtheriae ATCC 8032.
In assay [37] the test system is Staphylococcus aureus SG501.
The test system of assay [38] is Pseudomonas aeruginosa ATCC 9027.
For assay [39], the system named is Escherichia coli ATCC 2592.
Assay [40] concerns Micrococcus luteus ATCC 9341.
Assay [41] concerns Candida albicans ATCC 36232.
In assay [42] the test system is Streptococcus pyogenes 77A.
Assay [43] deals with Bacillus subtilis ATCC 6633.
In assay [44] the test system is Bacillus subtilis ATCC 1768.
Assay [45] has as its system Proteus vulgaris ATCC 6380.
The subject of assay [46] is Streptococcus pyogenes 308A.
In assay [47] the test system is Shigella flexneri ATCC 203.
Assay [48] has as its system Staphylococcus aureus ATCC 6538.

In the case of `CC[C@H](C)[C@H](NC(=O)CNC(=O)[C@H](CCC(N)=O)NC(=O)CNC(=O)[C@@H](NC(=O)[C@H](CCCCN)NC(=O)[C@H](CCC(=O)O)NC(=O)[C@@H](NC(=O)[C@H](CCCCN)NC(=O)[C@H](CCCCN)NC(=O)[C@H](Cc1ccccc1)NC(=O)[C@H](CC(C)C)NC(=O)[C@H](CCCCN)NC(=O)[C@H](Cc1c[nH]c2ccccc12)NC(=O)[C@@H](N)CCCCN)[C@@H](C)CC)C(C)C)C(=O)NCC(=O)N[C@@H](C)C(=O)N[C@H](C(=O)N[C@@H](CC(C)C)C(=O)N[C@@H](CCCCN)C(=O)N[C@H](C(=O)N[C@@H](CC(C)C)C(=O)N[C@H](C(=O)N[C@H](C(=O)NCC(=O)N[C@@H](CC(C)C)C(N)=O)[C@@H](C)O)[C@@H](C)O)C(C)C)C(C)C` [KWKLFKKIEKVGQGIGAVLKVLTTGL], the MIC in assay [1] stood at 3.96 µM (≈ 11.3 µg/mL); in [2], 3.01 µM (≈ 8.6 µg/mL); in assay [3] it was 2.63 µM (≈ 7.5 µg/mL); in assay [4] it was 1.33 µM (≈ 3.8 µg/mL); in assay [5] it was 1.54 µM (≈ 4.4 µg/mL); in assay [6], 3.15 µM (≈ 9 µg/mL). Further, the MIC was determined as 1.72 µM (≈ 4.9 µg/mL) in assay [7]; 1.58 µM (≈ 4.5 µg/mL) in assay [8]; 4.97 µM (≈ 14.2 µg/mL) in assay [9]; 1.54 µM (≈ 4.4 µg/mL) in assay [10]; 1.4 µM (≈ 4 µg/mL) in assay [11]; 2.56 µM (≈ 7.3 µg/mL) in assay [12]. The minimal inhibitory concentration (MIC) in assay [13] was determined as 1.47 µM (≈ 4.2 µg/mL); in assay [14], 1.65 µM (≈ 4.7 µg/mL); in assay [15] it was 1.61 µM (≈ 4.6 µg/mL); in [16], 1.26 µM (≈ 3.6 µg/mL); in assay [17] it was 3.68 µM (≈ 10.5 µg/mL); in assay [18], 4.62 µM (≈ 13.2 µg/mL). Further, the MIC in assay [19] turned out to be 1.3 µM (≈ 3.7 µg/mL); in assay [20], 1.65 µM (≈ 4.7 µg/mL); in [21] it was 1.54 µM (≈ 4.4 µg/mL); in assay [22] it was 2.7 µM (≈ 7.7 µg/mL); in [23], 3.71 µM (≈ 10.6 µg/mL).
As to `CC(C)C[C@@H]1NC(=O)[C@H](CCCN=C(N)N)NC(=O)[C@H](Cc2cnc[nH]2)NC(=O)[C@H](Cc2c[nH]c3ccccc23)NC(=O)CNC(=O)CNC(=O)[C@@H](NC(=O)[C@H](Cc2ccc(O)cc2)NC(=O)CNC(=O)CNC(=O)[C@@H](N)CO)CSSC[C@@H](C(=O)N[C@H](C(=O)N[C@@H](CO)C(=O)N[C@@H](Cc2ccc(O)cc2)C(=O)N[C@@H](CCCN=C(N)N)C(=O)N[C@@H](CO)C(=O)NCC(=O)O)[C@@H](C)O)NC(=O)[C@H](CCCN=C(N)N)NC1=O` [SGGYCGGWHRLRCTSYRSG], the MIC is at least 75 µM in assay [24]; at least 34 µM in [25]; 16 µM (≈ 33.6 µg/mL) in [26]; at least 62 µM in assay [27]; 8 µM (≈ 16.8 µg/mL) in [28]; at least 75 µM in assay [29]. For the same compound, the MIC is 17 µM (≈ 35.7 µg/mL) in [30], at least 75 µM in assay [31], 41 µM (≈ 86.2 µg/mL) in [32] and 13 µM (≈ 27.3 µg/mL) in assay [33].
With `CC[C@H](C)[C@@H]1NC(=O)[C@H](CC(=O)O)NC(=O)[C@@H](NC(=O)[C@@H](NC(=O)[C@@H](N)C(C)C)[C@@H](C)O)CSSC[C@@H]2NC(=O)[C@H](Cc3ccc(O)cc3)NC(=O)CNC(=O)CNC(=O)[C@H](CO)NC(=O)[C@H](CCCN=C(N)N)NC(=O)CNC(=O)[C@H](CCCN=C(N)N)NC(=O)[C@H](Cc3ccccc3)NC(=O)[C@H](CC(C)C)NC(=O)[C@@H]3CSSC[C@@H](C(=O)N[C@@H](CCCN=C(N)N)C(=O)O)NC(=O)[C@H](C(C)C)NC(=O)[C@H](CSSC[C@H](NC(=O)[C@H](C)NC(=O)[C@H](C)NC(=O)[C@H](CC(=O)O)NC(=O)[C@H](CC(N)=O)NC(=O)[C@H](CC(C)C)NC(=O)[C@H](CCCCN)NC(=O)[C@H](C(C)C)NC(=O)CNC(=O)[C@H](CCCCN)NC(=O)[C@H](C)NC(=O)[C@H](CCC(=O)O)NC(=O)[C@H](C(C)C)NC(=O)[C@H](CO)NC(=O)[C@H](CC(C)C)NC1=O)C(=O)N[C@@H](C)C(=O)N[C@@H](C)C(=O)N[C@@H](Cc1cnc[nH]1)C(=O)N3)NC(=O)[C@H](C(C)C)NC(=O)[C@H](CCCN=C(N)N)NC(=O)[C@H](CCCCN)NC(=O)CNC(=O)[C@H](CC(N)=O)NC2=O` [VTCDILSVEAKGVKLNDAACAAHCLFRGRSGGYCNGKRVCVCR], the MIC in assay [34] is 1.1 µM; in assay [35], 1.76 µM; in assay [36], 1.32 µM; in assay [2] it was 5.5 µM; in assay [37], 0.176 µM; in assay [38] it was above 22 µM. The MIC is 22 µM in assay [39]; 0.686 µM and 1.76 µM in [40]; 22 µM in assay [41]; 0.22 µM in assay [42]; 0.22 µM in assay [43]; 1.76 µM in assay [32]. The minimal inhibitory concentration (MIC) was determined as 0.44 µM in [44]; 6.6 µM in [45]; 0.352 µM in [46]; 6.6 µM in assay [47]; 1.38 µM in assay [48].
